# Test results published in ChEMBL document CHEMBL4229379, “Synthesis and structure-activity relationship of novel bisindole amidines active against MDR Gram-positive and Gram-negative bacteria” (Eur J Med Chem, 2018).
# Assays:
# Enterococcus faecalis [1] = test: Antibacterial activity against vancomycin-resistant Enterococcus faecalis ATCC 51299 after 18 hrs by CLSI broth microdilution method; type: functional; conditions: ATCC 51299, 18 h
# Providencia rettgeri = test: Antibacterial activity against Providencia rettgeri ATCC 31052 after 18 hrs by CLSI broth microdilution method; type: functional; conditions: ATCC 31052, 18 h
# Escherichia coli [2] = test: Antibacterial activity against extended-spectrum beta-lactamase deficient Escherichia coli ATCC 25922 after 18 hrs by CLSI broth microdilution method; type: functional; conditions: ATCC 25922, 18 h
# Klebsiella pneumoniae [3] = test: Antibacterial activity against extended-spectrum beta-lactamase deficient Klebsiella pneumoniae 7 after 18 hrs by CLSI broth microdilution method; type: functional; conditions: Klebsiella pneumoniae, 7, 18 h
# [4] = tested on: Stenotrophomonas maltophilia; test: Antibacterial activity against Stenotrophomonas maltophilia ATCC 13636 after 18 hrs by CLSI broth microdilution method; type: functional; conditions: ATCC 13636, 18 h
# Enterococcus faecium [5] = test: Antibacterial activity against vancomycin-resistant Enterococcus faecium 12-1 after 18 hrs by CLSI broth microdilution method; type: functional; conditions: 12-1, 18 h
# Serratia marcescens = test: Antibacterial activity against Serratia marcescens ATCC 21074 after 18 hrs by CLSI broth microdilution method; type: functional; conditions: ATCC 21074, 18 h
# Escherichia coli [6] = test: Antibacterial activity against extended-spectrum beta-lactamase deficient Escherichia coli 12-14 after 18 hrs by CLSI broth microdilution method; type: functional; conditions: 12-14, 18 h
# Klebsiella aerogenes = test: Antibacterial activity against Enterobacter aerogenes ATCC 13048 after 18 hrs by CLSI broth microdilution method; type: functional; conditions: ATCC 13048, 18 h
# Klebsiella pneumoniae [7] = test: Antibacterial activity against extended-spectrum beta-lactamase deficient Klebsiella pneumoniae 12-4 after 18 hrs by CLSI broth microdilution method; type: functional; conditions: 12-4, 18 h
# Klebsiella pneumoniae [8] = test: Antibacterial activity against new delhi metallo-beta-lactamase-1 harboring Klebsiella pneumoniae ATCC BAA-2146 after 18 hrs by CLSI broth microdilution method; type: functional; conditions: ATCC BAA-2146, 18 h
# Escherichia coli [9] = test: Antibacterial activity against extended-spectrum beta-lactamase harboring Escherichia coli 12-15 after 18 hrs by CLSI broth microdilution method; type: functional; conditions: 12-15, 18 h
# Enterobacter cloacae = test: Antibacterial activity against Enterobacter cloacae ATCC 43560 after 18 hrs by CLSI broth microdilution method; type: functional; conditions: ATCC 43560, 18 h
# Pseudomonas aeruginosa [10] = test: Antibacterial activity against Pseudomonas aeruginosa ATCC 27853 after 18 hrs by CLSI broth microdilution method; type: functional; conditions: ATCC 27853, 18 h
# [11] = tested on: Acinetobacter calcoaceticus; test: Antibacterial activity against Acinetobacter calcoaceticus ATCC 19606 after 18 hrs by CLSI broth microdilution method; type: functional; conditions: ATCC 19606, 18 h
# Proteus mirabilis = test: Antibacterial activity against Proteus mirabilis 12-6 after 18 hrs by CLSI broth microdilution method; type: functional; conditions: 12-6, 18 h
# Staphylococcus aureus [12] = test: Antibacterial activity against methicillin-resistant Staphylococcus aureus ATCC 33591 after 18 hrs by CLSI broth microdilution method; type: functional; conditions: ATCC 33591, 18 h
# Pseudomonas aeruginosa [13] = test: Antibacterial activity against Pseudomonas aeruginosa 12-16 after 18 hrs by CLSI broth microdilution method; type: functional; conditions: 12-16, 18 h
# Klebsiella pneumoniae [14] = test: Antibacterial activity against extended-spectrum beta-lactamase harboring Klebsiella pneumoniae ATCC 700603 after 18 hrs by CLSI broth microdilution method; type: functional; conditions: Klebsiella pneumoniae, 700603, 18 h
# Escherichia coli [15] = test: Antibacterial activity against extended-spectrum beta-lactamase deficient Escherichia coli 1515 after 18 hrs by CLSI broth microdilution method; type: functional; conditions: Escherichia coli, 1515, 18 h
# Staphylococcus aureus [16] = test: Antibacterial activity against methicillin-sensitive Staphylococcus aureus 12-28 after 18 hrs by CLSI broth microdilution method; type: functional; conditions: 12-28, 18 h
# Staphylococcus aureus [17] = test: Antibacterial activity against methicillin-resistant Staphylococcus aureus 12-33 after 18 hrs by CLSI broth microdilution method; type: functional; conditions: 12-33, 18 h
# Staphylococcus aureus [18] = test: Antibacterial activity against methicillin-sensitive Staphylococcus aureus ATCC 29213 after 18 hrs by CLSI broth microdilution method; type: functional; conditions: ATCC 29213, 18 h
# Pseudomonas aeruginosa [19] = test: Antibacterial activity against Pseudomonas aeruginosa PAO1 after 18 hrs by CLSI broth microdilution method; type: functional; conditions: PAO1, 18 h
# Enterococcus faecalis [20] = test: Antibacterial activity against vancomycin-sensitive Enterococcus faecalis 12-5 after 18 hrs by CLSI broth microdilution method; type: functional; conditions: 12-5, 18 h
# Klebsiella pneumoniae [21] = test: Antibacterial activity against extended-spectrum beta-lactamase harboring Klebsiella pneumoniae 12-8 after 18 hrs by CLSI broth microdilution method; type: functional; conditions: 12-8, 18 h
# [22] = tested on: Staphylococcus epidermidis; test: Antibacterial activity against methicillin-resistant Staphylococcus epidermidis 12-8 after 18 hrs by CLSI broth microdilution method; type: functional; conditions: 12-8, 18 h
# Enterococcus faecium [23] = test: Antibacterial activity against vancomycin-sensitive Enterococcus faecium 12-3 after 18 hrs by CLSI broth microdilution method; type: functional; conditions: 12-3, 18 h
# Enterococcus faecium [24] = test: Antibacterial activity against vancomycin-resistant Enterococcus faecium ATCC 700221 after 18 hrs by CLSI broth microdilution method; type: functional; conditions: ATCC 700221, 18 h
# Enterococcus faecalis [25] = test: Antibacterial activity against vancomycin-resistant Enterococcus faecalis 09-9 after 18 hrs by CLSI broth microdilution method; type: functional; conditions: 09-9, 18 h
# Enterococcus faecalis [26] = test: Antibacterial activity against vancomycin-sensitive Enterococcus faecalis ATCC 29212 after 18 hrs by CLSI broth microdilution method; type: functional; conditions: ATCC 29212, 18 h
# [27] = Cytotoxicity against HEK293T cells assessed as reduction in cell viability after 48 hrs by MTS assay; type: cell-based, HEK-293T; conditions: human
# Staphylococcus aureus [28] = test: Antibacterial activity against methicillin-sensitive Staphylococcus aureus 15 after 18 hrs by CLSI broth microdilution method; type: functional; conditions: Staphylococcus aureus, 15, 18 h
# [29] = tested on: Staphylococcus epidermidis; test: Antibacterial activity against methicillin-sensitive Staphylococcus epidermidis 12-6 after 18 hrs by CLSI broth microdilution method; type: functional; conditions: 12-6, 18 h
# [30] = tested on: Staphylococcus epidermidis; test: Antibacterial activity against methicillin-sensitive Staphylococcus epidermidis ATCC 12228 after 18 hrs by CLSI broth microdilution method; type: functional; conditions: ATCC 12228, 18 h
# Citrobacter freundii = test: Antibacterial activity against Citrobacter freundii ATCC 43864 after 18 hrs by CLSI broth microdilution method; type: functional; conditions: ATCC 43864, 18 h
# Proteus vulgaris = test: Antibacterial activity against Proteus vulgaris ATCC 29905 after 18 hrs by CLSI broth microdilution method; type: functional; conditions: ATCC 29905, 18 h
SMILES,MIC (Enterococcus faecalis [1]) [µg/mL],MIC (Providencia rettgeri) [µg/mL],MIC (Escherichia coli [2]) [µg/mL],MIC (Klebsiella pneumoniae [3]) [µg/mL],MIC [4] [µg/mL],MIC (Enterococcus faecium [5]) [µg/mL],MIC (Serratia marcescens) [µg/mL],MIC (Escherichia coli [6]) [µg/mL],MIC (Klebsiella aerogenes) [µg/mL],MIC (Klebsiella pneumoniae [7]) [µg/mL],MIC (Klebsiella pneumoniae [8]) [µg/mL],MIC (Escherichia coli [9]) [µg/mL],MIC (Enterobacter cloacae) [µg/mL],MIC (Pseudomonas aeruginosa [10]) [µg/mL],MIC [11] [µg/mL],MIC (Proteus mirabilis) [µg/mL],MIC (Staphylococcus aureus [12]) [µg/mL],MIC (Pseudomonas aeruginosa [13]) [µg/mL],MIC (Klebsiella pneumoniae [14]) [µg/mL],MIC (Escherichia coli [15]) [µg/mL],also measured
CC(C)NC(=N)c1ccc2cc(-c3ccc(-c4cc5ccc(C(=N)NC(C)C)cc5[nH]4)cc3)[nH]c2c1,0.25,4,2,2,4,0.25,8,4,4,2,4,2,4,2,16,16,0.125,8,8,4,MIC (Staphylococcus aureus [16]): 0.125 µg/mL; MIC (Staphylococcus aureus [17]): 0.125 µg/mL; MIC (Staphylococcus aureus [18]): 0.125 µg/mL; MIC (Pseudomonas aeruginosa [19]): 4 µg/mL; MIC (Enterococcus faecalis [20]): 0.5 µg/mL; MIC (Klebsiella pneumoniae [21]): 2 µg/mL; MIC [22]: 0.125 µg/mL; MIC (Enterococcus faecium [23]): 0.25 µg/mL; MIC (Enterococcus faecium [24]): 0.25 µg/mL; MIC (Enterococcus faecalis [25]): 0.25 µg/mL; MIC (Enterococcus faecalis [26]): 0.25 µg/mL; CC50 at 48 h [27]: 12.3 µg/mL; MIC (Staphylococcus aureus [28]): 0.125 µg/mL; MIC [29]: 0.125 µg/mL; MIC [30]: 0.125 µg/mL; MIC (Citrobacter freundii): 2 µg/mL; MIC (Proteus vulgaris): 4 µg/mL
CN(C)C(=N)c1ccc2cc(-c3ccc(-c4cc5ccc(C(=N)N(C)C)cc5[nH]4)nc3)[nH]c2c1,4,16,4,16,128,2,> 128,4,16,32,32,4,8,64,> 128,> 128,1,> 128,> 128,4,MIC (Staphylococcus aureus [16]): 1 µg/mL; MIC (Staphylococcus aureus [17]): 2 µg/mL; MIC (Staphylococcus aureus [18]): 1 µg/mL; MIC (Pseudomonas aeruginosa [19]): > 128 µg/mL; MIC (Enterococcus faecalis [20]): 4 µg/mL; MIC (Klebsiella pneumoniae [21]): 32 µg/mL; MIC [22]: 1 µg/mL; MIC (Enterococcus faecium [23]): 4 µg/mL; MIC (Enterococcus faecium [24]): 4 µg/mL; MIC (Enterococcus faecalis [25]): 4 µg/mL; MIC (Enterococcus faecalis [26]): 4 µg/mL; CC50 at 48 h [27]: 11.7 µg/mL; MIC (Staphylococcus aureus [28]): 1 µg/mL; MIC [29]: 2 µg/mL; MIC [30]: 0.5 µg/mL; MIC (Citrobacter freundii): 16 µg/mL; MIC (Proteus vulgaris): 16 µg/mL
CCC(C)NC(=N)c1ccc2cc(-c3cncc(-c4cc5ccc(C(=N)NC(C)CC)cc5[nH]4)c3)[nH]c2c1 (stereo unspecified),> 64,> 64,> 64,> 64,> 64,64,> 64,> 64,> 64,> 64,> 64,> 64,> 64,> 64,> 64,> 64,8,> 64,> 64,> 64,MIC (Staphylococcus aureus [16]): 16 µg/mL; MIC (Staphylococcus aureus [17]): 16 µg/mL; MIC (Staphylococcus aureus [18]): 8 µg/mL; MIC (Pseudomonas aeruginosa [19]): > 64 µg/mL; MIC (Enterococcus faecalis [20]): > 64 µg/mL; MIC (Klebsiella pneumoniae [21]): > 64 µg/mL; MIC [22]: 8 µg/mL; MIC (Enterococcus faecium [23]): > 64 µg/mL; MIC (Enterococcus faecium [24]): > 64 µg/mL; MIC (Enterococcus faecalis [25]): > 64 µg/mL; MIC (Enterococcus faecalis [26]): > 64 µg/mL; CC50 at 48 h [27]: 22.8 µg/mL; MIC (Staphylococcus aureus [28]): 16 µg/mL; MIC [29]: 8 µg/mL; MIC [30]: 8 µg/mL; MIC (Citrobacter freundii): > 64 µg/mL; MIC (Proteus vulgaris): > 64 µg/mL
